pKi: −log10 of the molar value.

One assay deals with T1, Carbonic anhydrase 4 (Bos taurus, UniProt Q95323).
T1 sequence (Q95323 whole entry): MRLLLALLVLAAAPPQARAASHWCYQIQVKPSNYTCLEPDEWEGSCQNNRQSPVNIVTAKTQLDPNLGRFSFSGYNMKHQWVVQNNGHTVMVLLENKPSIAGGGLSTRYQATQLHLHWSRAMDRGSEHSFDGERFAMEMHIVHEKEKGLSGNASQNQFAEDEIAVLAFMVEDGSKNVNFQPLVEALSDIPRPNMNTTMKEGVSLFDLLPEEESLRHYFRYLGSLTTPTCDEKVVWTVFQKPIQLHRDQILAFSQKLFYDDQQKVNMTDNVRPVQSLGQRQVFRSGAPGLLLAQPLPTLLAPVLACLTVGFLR

The target of a further assay is Carbonic anhydrase 2 (Homo sapiens, UniProt P00918).
The next assay has as its target Carbonic anhydrase 1 (Homo sapiens, UniProt P00915).

Sequence of Carbonic anhydrase 1 (P00915 whole entry): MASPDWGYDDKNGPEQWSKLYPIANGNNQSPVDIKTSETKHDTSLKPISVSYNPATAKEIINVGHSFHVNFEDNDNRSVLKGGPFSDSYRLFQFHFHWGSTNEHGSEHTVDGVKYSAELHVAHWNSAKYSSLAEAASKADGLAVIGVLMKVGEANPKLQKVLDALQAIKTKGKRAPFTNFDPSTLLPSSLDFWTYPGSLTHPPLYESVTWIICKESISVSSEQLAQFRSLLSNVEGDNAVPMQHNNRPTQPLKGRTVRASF
Description for Carbonic anhydrase 1: Inhibitory activity against human recombinant carbonic anhydrase I (CA1)
Description for Carbonic anhydrase 2: Inhibitory activity against human recombinant carbonic anhydrase II (CA2)
Description for Carbonic anhydrase 4: Inhibitory activity against bovine carbonic anhydrase IV (CA4), obtained from bovine lung microsomes

For orientation: pKi means −log10 of the Ki, conventionally taken in molar units. High values mean a low Ki, low ones a high Ki. Consider `C[C@H](CCC(=O)Nc1ccc(S(N)(=O)=O)cc1Cl)[C@H]1CC[C@H]2[C@@H]3[C@@H](O)C[C@@H]4C[C@H](O)CC[C@]4(C)[C@H]3CC[C@]12C`, for which the pKi on Carbonic anhydrase 4 is 7.52; on Carbonic anhydrase 2, 7.77; on Carbonic anhydrase 1, 6.72.

Turning to `C[C@H](CCC(=O)NCCC(=O)Nc1nnc(S(N)(=O)=O)s1)[C@H]1CC[C@H]2[C@@H]3[C@H](O)C[C@@H]4C[C@H](O)CC[C@]4(C)[C@H]3C[C@H](O)[C@]12C`, the pKi was 7.51 on Carbonic anhydrase 4, 8.92 at Carbonic anhydrase 2 and 6.60 on Carbonic anhydrase 1.

As for `C[C@H](CCC(=O)NCCc1ccc(S(N)(=O)=O)cc1)[C@H]1CC[C@H]2[C@@H]3[C@H](O)C[C@@H]4C[C@H](O)CC[C@]4(C)[C@H]3C[C@H](O)[C@]12C`, the figures for the pKi on Carbonic anhydrase 4, at Carbonic anhydrase 2 and on Carbonic anhydrase 1 were 6.66, 7.07 and 5.47, respectively.

Take `C[C@H](CCC(=O)Nc1ccc(S(N)(=O)=O)cc1F)[C@H]1CC[C@H]2[C@@H]3[C@@H](O)C[C@@H]4C[C@H](O)CC[C@]4(C)[C@H]3CC[C@]12C`: the negative logarithm of the Ki (pKi) on Carbonic anhydrase 4 is 7.62; on Carbonic anhydrase 2, 7.96; on Carbonic anhydrase 1, 6.74.

Regarding `C[C@H](CCC(=O)Nc1ccc(S(N)(=O)=O)cc1I)[C@H]1CC[C@H]2[C@@H]3CC[C@@H]4C[C@H](O)CC[C@]4(C)[C@H]3CC[C@]12C`, the pKi on Carbonic anhydrase 4 was 7.16; at Carbonic anhydrase 2, 7.49; at Carbonic anhydrase 1, 6.92.

As for `C[C@H](CCC(=O)Nc1cc(Cl)c(S(N)(=O)=O)cc1S(N)(=O)=O)[C@H]1CC[C@H]2[C@@H]3[C@H](O)C[C@@H]4C[C@H](O)CC[C@]4(C)[C@H]3C[C@H](O)[C@]12C`, the pKi on Carbonic anhydrase 4 was 6.89; on Carbonic anhydrase 2, 7.25; at Carbonic anhydrase 1, 6.40.

Regarding `C[C@H](CCC(=O)Nc1ccccc1S(N)(=O)=O)[C@H]1CC[C@H]2[C@@H]3[C@@H](O)C[C@@H]4C[C@H](O)CC[C@]4(C)[C@H]3CC[C@]12C`, the results for the pKi on Carbonic anhydrase 4, at Carbonic anhydrase 2 and at Carbonic anhydrase 1 were 6.30, 6.74 and 5.08, respectively.

Consider `C[C@H](CCC(=O)Nc1nnc(S(N)(=O)=O)s1)[C@H]1CC[C@H]2[C@@H]3[C@@H](O)C[C@@H]4C[C@H](O)CC[C@]4(C)[C@H]3CC[C@]12C`, for which the pKi is 7.80 on Carbonic anhydrase 4, 9.05 on Carbonic anhydrase 2 and 7.32 on Carbonic anhydrase 1.

As for `C[C@H](CCC(=O)NCc1ccc(S(N)(=O)=O)cc1)[C@H]1CC[C@H]2[C@@H]3[C@H](O)C[C@@H]4C[C@H](O)CC[C@]4(C)[C@H]3C[C@H](O)[C@]12C`, the results for the pKi at Carbonic anhydrase 4, on Carbonic anhydrase 2 and on Carbonic anhydrase 1 were 6.60, 6.92 and 5.42, respectively.

For the compound `C[C@H](CCC(=O)Nc1ccc(S(N)(=O)=O)cc1I)[C@H]1CC[C@H]2[C@@H]3C(=O)C[C@@H]4CC(=O)CC[C@]4(C)[C@H]3CC(=O)[C@]12C`, the figures for the pKi at Carbonic anhydrase 4, at Carbonic anhydrase 2 and on Carbonic anhydrase 1 were 7.72, 8.00 and 7.21, respectively.

As to `C[C@H](CCC(=O)Nc1c(S(N)(=O)=O)cc(S(N)(=O)=O)c(Cl)c1Cl)[C@H]1CC[C@H]2[C@@H]3[C@H](O)C[C@@H]4C[C@H](O)CC[C@]4(C)[C@H]3CC[C@]12C`, the pKi on Carbonic anhydrase 4 was 7.02; on Carbonic anhydrase 2, 7.68; on Carbonic anhydrase 1 it was 6.46.

Take `C[C@H](CCC(=O)Nc1ccc(S(N)(=O)=O)cc1Cl)[C@H]1CC[C@H]2[C@@H]3CC[C@@H]4C[C@H](O)CC[C@]4(C)[C@H]3CC[C@]12C`: the pKi is 7.27 at Carbonic anhydrase 4, 7.33 on Carbonic anhydrase 2 and 6.14 on Carbonic anhydrase 1.

As for `C[C@H](CCC(=O)Nc1ccc(S(N)(=O)=O)cc1)[C@H]1CC[C@H]2[C@@H]3C(=O)C[C@@H]4CC(=O)CC[C@]4(C)[C@H]3CC(=O)[C@]12C`, the pKi at Carbonic anhydrase 4 was 6.83; at Carbonic anhydrase 2 it was 7.15; on Carbonic anhydrase 1, 5.43.

For `C[C@H](CCC(=O)OCCc1ccc(S(N)(=O)=O)cc1)[C@H]1CC[C@H]2[C@@H]3[C@H](O)C[C@@H]4C[C@H](O)CC[C@]4(C)[C@H]3C[C@H](O)[C@]12C`, the pKi was 6.52 at Carbonic anhydrase 4, 7.10 on Carbonic anhydrase 2 and 5.94 at Carbonic anhydrase 1.

`C[C@H](CCC(=O)Nc1ccc(S(N)(=O)=O)cc1Br)[C@H]1CC[C@H]2[C@@H]3[C@H](O)C[C@@H]4C[C@H](O)CC[C@]4(C)[C@H]3C[C@H](O)[C@]12C`: the negative-log Ki (pKi) on Carbonic anhydrase 4 is 7.22; on Carbonic anhydrase 2, 7.46; at Carbonic anhydrase 1, 6.22.

As to `C[C@H](CCC(=O)Nc1ccc(S(N)(=O)=O)cc1Br)[C@H]1CC[C@H]2[C@@H]3[C@@H](O)C[C@@H]4C[C@H](O)CC[C@]4(C)[C@H]3CC[C@]12C`, the values for the pKi on Carbonic anhydrase 4, on Carbonic anhydrase 2 and at Carbonic anhydrase 1 were 7.64, 8.00 and 7.04, respectively.

As to `C[C@H](CCC(=O)Nc1ccc(S(N)(=O)=O)cc1)[C@H]1CC[C@H]2[C@@H]3CC[C@@H]4C[C@H](O)CC[C@]4(C)[C@H]3C[C@H](O)[C@]12C`, the pKi was 6.45 on Carbonic anhydrase 4, 6.68 on Carbonic anhydrase 2 and 4.92 on Carbonic anhydrase 1.

As for `C[C@H](CCC(=O)Nc1ccc(S(N)(=O)=O)cc1)[C@H]1CC[C@H]2[C@@H]3[C@H](O)C[C@@H]4C[C@H](O)CC[C@]4(C)[C@H]3CC[C@]12C`, the pKi at Carbonic anhydrase 4 is 6.38; at Carbonic anhydrase 2, 6.73; at Carbonic anhydrase 1, 4.70.

`C[C@H](CCC(=O)NCCc1ccc(S(N)(=O)=O)cc1)[C@H]1CC[C@H]2[C@@H]3C(=O)C[C@@H]4CC(=O)CC[C@]4(C)[C@H]3CC(=O)[C@]12C`: the pKi was 7.54 on Carbonic anhydrase 4, 7.74 at Carbonic anhydrase 2 and 6.55 on Carbonic anhydrase 1.

On to `C[C@H](CCC(=O)Nc1ccc(S(N)(=O)=O)cc1Cl)[C@H]1CC[C@H]2[C@@H]3[C@H](O)C[C@@H]4C[C@H](O)CC[C@]4(C)[C@H]3C[C@H](O)[C@]12C`, for which the pKi on Carbonic anhydrase 4 is 6.77; on Carbonic anhydrase 2, 7.09; at Carbonic anhydrase 1, 6.01.

Consider `C[C@H](CCC(=O)Nc1nnc(S(N)(=O)=O)s1)[C@H]1CC[C@H]2[C@@H]3[C@H](O)C[C@@H]4C[C@H](O)CC[C@]4(C)[C@H]3C[C@H](O)[C@]12C`, for which the pKi is 6.69 on Carbonic anhydrase 4, 7.30 at Carbonic anhydrase 2 and 6.38 at Carbonic anhydrase 1.

With `C[C@H](CCC(=O)OCCOc1ccc2nc(S(N)(=O)=O)sc2c1)[C@H]1CC[C@H]2[C@@H]3[C@H](O)C[C@@H]4C[C@H](O)CC[C@]4(C)[C@H]3C[C@H](O)[C@]12C`, the pKi was 8.00 at Carbonic anhydrase 4, 8.52 at Carbonic anhydrase 2 and 7.41 at Carbonic anhydrase 1.

As for `C[C@H](CCC(=O)NNc1ccc(S(N)(=O)=O)cc1)[C@H]1CC[C@H]2[C@@H]3[C@@H](O)C[C@@H]4C[C@H](O)CC[C@]4(C)[C@H]3CC[C@]12C`, the pKi on Carbonic anhydrase 4 was 6.21; on Carbonic anhydrase 2 it was 6.62; at Carbonic anhydrase 1 it was 4.92.

Turning to `C[C@H](CCC(=O)Nc1ccc(S(N)(=O)=O)cc1Cl)[C@H]1CC[C@H]2[C@@H]3CC[C@@H]4C[C@H](O)CC[C@]4(C)[C@H]3C[C@H](O)[C@]12C`, the values for the pKi at Carbonic anhydrase 4, on Carbonic anhydrase 2 and on Carbonic anhydrase 1 were 6.82, 7.11 and 6.05, respectively.

Take `C[C@H](CCC(=O)OCCOc1ccc2nc(S(N)(=O)=O)sc2c1)[C@H]1CC[C@H]2[C@@H]3CC[C@@H]4C[C@H](O)CC[C@]4(C)[C@H]3C[C@H](O)[C@]12C`: the pKi at Carbonic anhydrase 4 was 8.10; on Carbonic anhydrase 2, 8.39; on Carbonic anhydrase 1, 7.43.

The values above are taken from ChEMBL document CHEMBL1135136, “Carbonic anhydrase inhibitors. Preparation of potent sulfonamides inhibitors incorporating bile acid tails” (Bioorg Med Chem Lett, 2002).
